# Results as given in patent US20170022242A1, “NOVEL ANTIVIRAL AND ANTITUMORAL COMPOUNDS” (KATHOLIEKE UNIVERSITEIT LEUVEN, KU LEUVEN R&D, priority 2014, published 2017).
# Read-outs that look alike come from different tables or passages of the source.
# Tests used:
# [1] = system: HCV1b/Con1 replicon; assay: HCV replicon antiviral evaluation assay (Luc reporter); type: cell-based; conditions: concentration inhibiting HCV replicon by 50%, Huh7 ET cells, 72 hr
# [2] = Cytotoxicity, CytoTox-1 cell proliferation assay of cell numbers; conditions: human
# [3] = system: ET (luc-ubi-neo/ET) Huh7 human hepatoma cell line; assay: as above; conditions: concentration decreasing cell viability by 50%; Huh7 ET cells, 72 hr; Table 1
# [4] = system: ET (luc-ubi-neo/ET) Huh7 human hepatoma cell line
# [5] = Hepatitis C virus, Table 1, 2′-C-methyl nucleoside phosphoramidates
# [6] = Table 1, 2′-C-methyl nucleoside phosphoramidates
Structure (SMILES),"EC50 [1, 6] [µM]",CC50 [3] [µM],CC50 [4] [µM],also measured
"C[C@@]1(O)[C@H](O)[C@@H](CO)O[C@H]1n1ccc(N)nc1=O [Cmpd 4, 2′-C-methylcytidine, reference compound]",–,–,–,"EC50 [1, 5]: 1.34 µM; CC50 at 72 h [2]: > 100 µM"
"C[C@@]1(O)[C@H](O)[C@@H](CO)O[C@H]1n1ccc(=O)[nH]c1=O [Cmpd 5, 2′-C-methyluridine, reference compound]",–,–,–,"EC50 [1, 5]: 6.31 µM; CC50 at 72 h [2]: > 100 µM"
"COC(=O)C[C@H](NP(=O)(OCC1OC(n2ccc(N)nc2=O)C(C)(O)C1O)Oc1ccccc1)C(=O)OC (stereo partly drawn) [Cmpd 16a, 2′-C-methylcytidine-5′-[phenyl-bis(methoxy-aspartyl)]phosphate]",3.71,> 100,–,–
"COC(=O)[C@H](CC(=O)OCc1ccccc1)NP(=O)(OCC1OC(n2ccc(N)nc2=O)C(C)(O)C1O)Oc1ccccc1 (stereo partly drawn) [Cmpd 16b, 2′-C-methylcytidine-5′-[phenyl-(α-methoxy-β-benzyloxy-aspartyl)]phosphate]",1.32,> 100,–,–
"CC(C)OC(=O)C[C@H](NP(=O)(OCC1OC(n2ccc(N)nc2=O)C(C)(O)C1O)Oc1ccccc1)C(=O)OC(C)C (stereo partly drawn) [Cmpd 16c, 2′-C-Methylcytidine-5′-[1-phenyl-bis(isopropyl-aspartyl)]phosphate]",0.96,> 100,–,–
"CCCCOC(=O)C[C@H](NP(=O)(OC[C@H]1O[C@@H](n2ccc(N)nc2=O)[C@](C)(O)[C@@H]1O)Oc1ccccc1)C(=O)OCCCC (stereo partly drawn) [Cmpd 16d, 2′-C-Methylcytidine-5′-[phenyl-bis(n-butyl-aspartyl)]phosphate]",0.26,30.9,–,–
"CCCCCOC(=O)C[C@H](NP(=O)(OCC1OC(n2ccc(N)nc2=O)C(C)(O)C1O)Oc1ccccc1)C(=O)OCCCCC (stereo partly drawn) [Cmpd 16e, 2′-C-Methyl-cytidine-5′-[phenyl-bis(amyl-aspartyl)]phosphate]",0.05,–,9.53,–
"CC(C)CCOC(=O)C[C@H](NP(=O)(OCC1OC(n2ccc(N)nc2=O)C(C)(O)C1O)Oc1ccccc1)C(=O)OCCC(C)C (stereo partly drawn) [Cmpd 16f, 2′-C-Methylcytidine-5′-[phenyl-bis(isoamyl-aspartyl)]phosphate]",0.05,9.54,–,–
"COC(=O)C[C@H](NP(=O)(OCC1OC(n2ccc(=O)[nH]c2=O)C(C)(O)C1O)Oc1ccccc1)C(=O)OC (stereo partly drawn) [Cmpd 17a, 2′-C-methyluridine-5′-[phenyl-bis(methoxy-aspartyl)]phosphate]",1.13,> 100,–,–
"COC(=O)[C@H](CC(=O)OCc1ccccc1)NP(=O)(OCC1OC(n2ccc(=O)[nH]c2=O)C(C)(O)C1O)Oc1ccccc1 (stereo partly drawn) [Cmpd 17b, 2′-C-methyluridine-5′-[phenyl-(α-methoxy-β-benzyloxy-aspartyl)]phosphate]",0.26,43.4,–,–
"CC(C)OC(=O)C[C@H](NP(=O)(OCC1OC(n2ccc(=O)[nH]c2=O)C(C)(O)C1O)Oc1ccccc1)C(=O)OC(C)C (stereo partly drawn) [Cmpd 17c, 2′-C-Methyl-uridine-5′-[1-phenyl-bis(isopropyl-aspartyl)]phosphate]",0.29,–,35.7,–
"CCCCOC(=O)C[C@H](NP(=O)(OCC1OC(n2ccc(=O)[nH]c2=O)C(C)(O)C1O)Oc1ccccc1)C(=O)OCCCC (stereo partly drawn) [Cmpd 17d, 2′-C-Methyl-uridine-5′-[phenyl-bis(n-butyl-aspartyl)]phosphate]",0.04,–,4.64,–
"CCCCCOC(=O)C[C@H](NP(=O)(OCC1OC(n2ccc(=O)[nH]c2=O)C(C)(O)C1O)Oc1ccccc1)C(=O)OCCCCC (stereo partly drawn) [Cmpd 17e, 2′-C-Methyl-uridine-5′-[phenyl-bis(amyl-aspartyl)]phosphate]",0.03,–,7.11,–
"CC(C)CCOC(=O)C[C@H](NP(=O)(OCC1OC(n2ccc(=O)[nH]c2=O)C(C)(O)C1O)Oc1ccccc1)C(=O)OCCC(C)C (stereo partly drawn) [Cmpd 17f, 2′-C-Methyl-uridine-5′-[phenyl-bis(isoamyl-aspartyl)]phosphate]",0.03,–,10,–
"C[C@@]1(F)[C@H](O)[C@@H](CO)O[C@H]1n1ccc(=O)[nH]c1=O [Cmpd 22, 2′-deoxy-2′-fluoro-2′-C-methyluridine, reference compound]",–,–,–,"EC50 ([1]; Hepatitis C virus, Table 2, 2′-F-nucleoside phosphoramidates): > 100 µM; CC50 at 72 h [2]: > 100 µM"
"CC(C)CCOC(=O)C[C@H](NP(=O)(OCC1OC(n2ccc(=O)[nH]c2=O)C(C)(F)C1O)Oc1ccccc1)C(=O)OCCC(C)C (stereo partly drawn) [Cmpd 23a, 2′-Deoxy-2′-fluoro-2′-C-methyl-uridine-5′-[phenyl-bis(isoamyl-aspartyl)]phosphate]",–,–,27.7,"EC50 ([1]; Table 2, 2′-F-nucleoside phosphoramidates): 0.06 µM"
"CC(C)CCOC(=O)C[C@H](NP(=O)(OCC1OC(n2ccc(=O)[nH]c2=O)C(C)(F)C1O)Oc1ccccc1)C(=O)OCCC(C)C (stereo partly drawn) [Mixture 23a/23b, 2′-Deoxy-2′-fluoro-2′-C-methyl-uridine-5′-[phenyl-bis(isoamyl-aspartyl)]phosphate]",–,–,33.1,–
